The target in assay [1] is T1, E. coli ADP-Glc PPase (Escherichia coli, UniProt P0A6V1).
T1 construct: made in house; host or cells: E. coli BL21 (DE3)
The assay is described as follows: ADP-Glc synthesis assay (Pi formation, Malachite Green) with Hill-equation kinetic characterization. To be noted: for IC50: read-out: I 0.5 for AMP. The format is biochemical. How it is done: Synthesis of ADP-Glc was assayed by following the formation of Pi (after hydrolysis of pyrophosphate by inorganic pyrophosphatase) as previously described. Unless otherwise stated, a 50 µl reaction mixture contained 100 mM HEPES (pH 8.0), 10 mM MgCl2, 1.5 mM ATP, 0.2 mg/ml bovine serum albumin, 0.5 mU/µl yeast inorganic pyrophosphatase, and the given amount of enzyme. Assays were initiated with 1 mM Glc-1P. If mentioned, a given amount of Pyr, Fru-1,6-P2, and/or AMP was also included. After incubation for 10 min at 37°C, addition of Malachite Green reagent terminated the reaction. The complex formed with the released Pi was measured at 630 nm with an ELISA EMax detector (Molecular Devices). Sodium pyrophosphate was used as standard. One unit of enzyme activity was defined as the amount producing of 1 µmol of product in 1 min under the specified conditions.
Data of enzyme activity were plotted versus effector concentration. Kinetic parameters from the Hill equation such as Hill coefficient (n H), maximal velocity (V max), as well as the activator substrate or inhibitor concentrations giving 50% of the maximal activation (A 0.5), velocity (S 0.5), or inhibition (I 0.5), were acquired by fitting the data with a non-linear least-squares algorithm using the program Origin 7.0 (OriginLab). Parameters are the mean of at least three independent sets of data, reproducible within ±10%. Sample standard deviations of the data were calculated from the Hill equation fitting by using the Levenberg–Marquardt method.

The target in assay [2] is T1, E. coli ADP-Glc PPase. The note with it: cited from earlier work.
Assay [3] relates to A. tumefaciens ADP-Glc PPase. Details: method as in PMID 9721178. The note with it: cited from earlier work.
[4] abbreviates: 50 µM AMP and 100 µM Fru-1,6-P2 (Figure 5).
The mark [5] stands for this setting: F. 50 mM Pyr +150 µM Fru-1,6-P2.

These results are taken from article PMC4125136, “A Novel Dual Allosteric Activation Mechanism of Escherichia coli ADP-Glucose Pyrophosphorylase: The Role of Pyruvate” (PLoS ONE, 2014).

Molecules are shown by their SMILES. Values joined by “and” are separate entries in the source; they are usually repeats but may differ in a detail not shown here. Equal values may be shown once. Read-outs that look alike come from different tables or passages of the source. Bounds are passed on as bounds.

T1 sequence (P0A6V1 whole entry): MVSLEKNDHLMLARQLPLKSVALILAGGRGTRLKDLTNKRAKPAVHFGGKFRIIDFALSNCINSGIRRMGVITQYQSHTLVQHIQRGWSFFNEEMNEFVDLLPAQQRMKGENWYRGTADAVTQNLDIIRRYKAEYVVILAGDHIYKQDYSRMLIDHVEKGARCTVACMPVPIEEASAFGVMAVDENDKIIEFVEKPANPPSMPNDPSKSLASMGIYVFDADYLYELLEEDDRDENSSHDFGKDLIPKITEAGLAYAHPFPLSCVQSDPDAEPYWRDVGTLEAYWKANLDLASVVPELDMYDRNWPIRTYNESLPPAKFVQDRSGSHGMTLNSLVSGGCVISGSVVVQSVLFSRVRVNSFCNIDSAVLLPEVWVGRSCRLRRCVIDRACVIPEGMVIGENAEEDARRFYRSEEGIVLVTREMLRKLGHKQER

Take `Cc1ncc(COP(=O)(O)O)c(C=O)c1O` [PLP, pyridoxal-5′-phosphate]: the EC50 on E. coli ADP-Glc PPase [1] (absence of Pyr (Figure 3B), read-out: A 0.5 for PLP) is 2.7 µM; on E. coli ADP-Glc PPase [1] (presence of 10 mM Pyr (Figure 3B), read-out: A 0.5 for PLP), 1 µM.
With `CC(=O)C(=O)O` [Pyr, pyruvate], at E. coli ADP-Glc PPase [1] (setting [4]), the “activation of the partially inhibited enzyme” value worked out at 4 fold. The “nH of Pyr activation” value on E. coli ADP-Glc PPase [1] (setting [4]) worked out at 1.2; at E. coli ADP-Glc PPase [1] (absence of any other regulatory effector (Figure 1)) it was 1.03. Moreover, the EC50 at E. coli ADP-Glc PPase [1] (50 µM AMP and 100 µM Fru-1,6-P2 (Figure 5), read-out: A 0.5 for Pyr) is 2760 µM; on E. coli ADP-Glc PPase [1] (absence of any other regulatory effector (Figure 1), read-out: A 0.5 for Pyr) it was 25000 µM; on E. coli ADP-Glc PPase [1] (at 50 µM Fru-1,6-P2, read-out: A 0.5 for Pyr), 5000 µM; on E. coli ADP-Glc PPase [1] (presence of 1 µM PLP (data not shown), read-out: A 0.5 for Pyr) it was 3700 µM; on E. coli ADP-Glc PPase [2] (weak activation, read-out: A 0.5 for Pyr), more than 10000 µM; in assay [3] (read-out: A 0.5 for Pyr), 130 µM. For the same compound, at E. coli ADP-Glc PPase [1] (20 mM Pyr with 100 µM Fru-1,6-P2, control without Pyr 31.2 U/mg), the “absolute activity (reference for relative activity, Figure 4)” value is recorded as 61.8 U/mg. In addition, the “decrease of apparent affinity for AMP” value on E. coli ADP-Glc PPase [1] (20 mM Pyr, 100 µM Fru-1,6-P2) was 3 fold. Moreover, the “enzyme more active if Pyr was present (relative activities)” value at E. coli ADP-Glc PPase [1] (20 mM Pyr, 100 µM Fru-1,6-P2, 0.05–0.15 mM AMP range) was “up to 3 fold”. For the same compound, the “increase of affinity for Glc-1P” value on E. coli ADP-Glc PPase [1] (25 mM Pyr combined with 10 µM Fru-1,6-P2, compared to absence of any effector) turned out to be 4.1 fold. In addition, the “lowering of S 0.5 for ATP” value at E. coli ADP-Glc PPase [1] (25 mM Pyr combined with 10 µM Fru-1,6-P2, vs no effector) turned out to be 6.6 fold. Also, the “lowering of S 0.5 for Glc-1P” value turned out to be 1.7 fold on E. coli ADP-Glc PPase [1] (25 mM Pyr vs no effector) and 2.6 fold on E. coli ADP-Glc PPase [1] (50 mM Pyr vs no effector). For the same compound, the “reduction of S 0.5 for ATP” value is 3.9 fold at E. coli ADP-Glc PPase [1] (25 mM Pyr vs no effector) and 6.2 fold at E. coli ADP-Glc PPase [1] (50 mM Pyr vs no effector). In addition, on E. coli ADP-Glc PPase [1] (100 mM Pyr (highest concentration tested), no other effector), the “increase of enzyme activity” value was found to be 3.3 fold. In addition, the V max is 3.93±0.21 U/mg at E. coli ADP-Glc PPase [1] (B. 25 mM Pyr); 5.31±0.19 U/mg at E. coli ADP-Glc PPase [1] (C. 50 mM Pyr); 31±2 U/mg on E. coli ADP-Glc PPase [1] (D. 25 mM Pyr +10 µM Fru-1,6-P2); 104±5 U/mg at E. coli ADP-Glc PPase [1] (setting [5]); 110±5 U/mg at E. coli ADP-Glc PPase [1] (J. 50 mM Pyr +2 mM Fru-1,6-P2). Also, the “A 0.5 for Pyr” value on E. coli ADP-Glc PPase [1] (Figure 2, at increasing concentrations of Fru-1,6-P2) is reported as “low mM range”. Besides, the “increase in V max by Pyr” value at E. coli ADP-Glc PPase [1] (Pyr alone) is ~4 fold and 5 fold. Besides, at E. coli ADP-Glc PPase [1] (in presence of 10 µM or 30 µM Fru-1,6-P2 (Figure 1)), the “maximal activation by Pyr” value was approximately 6 fold. Also, in assay [3], the Pyr activation is 5 fold.
As to `Nc1ncnc2c1ncn2[C@@H]1O[C@H](COP(=O)(O)OP(=O)(O)OP(=O)(O)O)[C@@H](O)[C@H]1O` [ATP-Mg], the “ATP-Mg S 0.5” value at E. coli ADP-Glc PPase [1] (A. No effector) came to 6.49 ± 0.21 mM; at E. coli ADP-Glc PPase [1] (B. 25 mM Pyr), 1.67 ± 0.08 mM; at E. coli ADP-Glc PPase [1] (C. 50 mM Pyr) it was 1.05 ± 0.06 mM; on E. coli ADP-Glc PPase [1] (D. 25 mM Pyr +10 µM Fru-1,6-P2), 0.99 ± 0.07 mM; on E. coli ADP-Glc PPase [1] (E. 10 µM Fru-1,6-P2), 5.02 ± 0.25 mM; at E. coli ADP-Glc PPase [1] (setting [5]), 0.37 ± 0.03 mM. Also, the entries for the “ATP-Mg S 0.5” value at E. coli ADP-Glc PPase [1] (G. 150 µM Fru-1,6-P2), on E. coli ADP-Glc PPase [1] (I. 2 mM Fru-1,6-P2) and at E. coli ADP-Glc PPase [1] (J. 50 mM Pyr +2 mM Fru-1,6-P2) were 1.31 ± 0.09 mM, 0.43 ± 0.02 mM and 0.19 ± 0.02 mM, respectively. In addition, the “ATP-Mg n H” value at E. coli ADP-Glc PPase [1] (A. No effector) is listed as 1.5; on E. coli ADP-Glc PPase [1] (B. 25 mM Pyr) it was 2.5; on E. coli ADP-Glc PPase [1] (C. 50 mM Pyr), 2.2; at E. coli ADP-Glc PPase [1] (D. 25 mM Pyr +10 µM Fru-1,6-P2), 3.6; on E. coli ADP-Glc PPase [1] (E. 10 µM Fru-1,6-P2), 2.1; at E. coli ADP-Glc PPase [1] (setting [5]) it was 2.4. Further, the “ATP-Mg n H” value is on record as 3.2 at E. coli ADP-Glc PPase [1] (G. 150 µM Fru-1,6-P2), 2.1 on E. coli ADP-Glc PPase [1] (I. 2 mM Fru-1,6-P2) and 1.4 on E. coli ADP-Glc PPase [1] (J. 50 mM Pyr +2 mM Fru-1,6-P2).
Regarding `O=C(COP(=O)(O)O)[C@@H](O)[C@H](O)[C@H](O)COP(=O)(O)O` [Fru-1,6-P2, Fructose-1,6-bisphosphate], the “improvement of apparent affinity of the enzyme for Pyr” value at E. coli ADP-Glc PPase [1] (30 µM Fru-1,6-P2 (Figure 1)) turned out to be 8.4 fold. In addition, the figures for the V max at E. coli ADP-Glc PPase [1] (E. 10 µM Fru-1,6-P2), at E. coli ADP-Glc PPase [1] (G. 150 µM Fru-1,6-P2) and at E. coli ADP-Glc PPase [1] (I. 2 mM Fru-1,6-P2) were 6.21±0.19 U/mg, 63±4 U/mg and 108±6 U/mg, respectively. In addition, the EC50 amounted to 120 µM at E. coli ADP-Glc PPase [1] (absence of Pyr (Figure 3A), read-out: A 0.5 for Fru-1,6-P2); 100 µM on E. coli ADP-Glc PPase [1] (as stated in legend of Figure 5, read-out: A 0.5 for Fru-1,6-P2); 70 µM on E. coli ADP-Glc PPase [1] (presence of 2.5 mM Pyr (Figure 3A), read-out: A 0.5 for Fru-1,6-P2). The “decrease of Pyr A 0.5” value on E. coli ADP-Glc PPase [1] (at 50 µM Fru-1,6-P2) is on record as 5 fold. Also, on E. coli ADP-Glc PPase [2], the “A 0.5 for Fru-1,6-P2” value is “sub-millimolar range”. Besides, the “increase of enzyme activity” value on E. coli ADP-Glc PPase [2] was approximately 50 fold.
`Nc1ncnc2c1ncn2[C@@H]1O[C@H](COP(=O)(O)O)[C@@H](O)[C@H]1O` [AMP]: the “n H of AMP inhibition” value at E. coli ADP-Glc PPase [1] (100 µM Fru-1,6-P2, absence of Pyr) was found to be 1.7; at E. coli ADP-Glc PPase [1] (100 µM Fru-1,6-P2, presence of 20 mM Pyr), 2.4. Moreover, the IC50 on E. coli ADP-Glc PPase [1] (100 µM Fru-1,6-P2, absence of Pyr (Figure 4)) worked out at 30 µM; at E. coli ADP-Glc PPase [1] (100 µM Fru-1,6-P2, presence of 20 mM Pyr (Figure 4)) it was 110 µM. For the same compound, the “remaining activity at maximum inhibition” value at E. coli ADP-Glc PPase [1] (100 µM Fru-1,6-P2, both in absence and presence of 20 mM Pyr) is “around 10%”.
Take `O=P(O)(O)OC1O[C@H](CO)[C@@H](O)[C@H](O)[C@H]1O` (stereo partly drawn) [Glc-1P]: the “Glc-1P S 0.5” value was 0.95 ± 0.07 mM on E. coli ADP-Glc PPase [1] (A. No effector); 0.57 ± 0.05 mM on E. coli ADP-Glc PPase [1] (B. 25 mM Pyr); 0.37 ± 0.02 mM on E. coli ADP-Glc PPase [1] (C. 50 mM Pyr); 0.23 ± 0.02 mM on E. coli ADP-Glc PPase [1] (D. 25 mM Pyr +10 µM Fru-1,6-P2); 0.77 ± 0.04 mM at E. coli ADP-Glc PPase [1] (E. 10 µM Fru-1,6-P2); 0.09 ± 0.01 mM at E. coli ADP-Glc PPase [1] (setting [5]). Also, the “Glc-1P S 0.5” value came to 0.12 ± 0.01 mM on E. coli ADP-Glc PPase [1] (G. 150 µM Fru-1,6-P2), 0.09 ± 0.01 mM at E. coli ADP-Glc PPase [1] (I. 2 mM Fru-1,6-P2) and 0.11 ± 0.01 mM at E. coli ADP-Glc PPase [1] (J. 50 mM Pyr +2 mM Fru-1,6-P2). The “Glc-1P n H” value amounted to 1.1 on E. coli ADP-Glc PPase [1] (A. No effector); 1.0 at E. coli ADP-Glc PPase [1] (B. 25 mM Pyr); 0.9 at E. coli ADP-Glc PPase [1] (C. 50 mM Pyr); 1.3 at E. coli ADP-Glc PPase [1] (D. 25 mM Pyr +10 µM Fru-1,6-P2); 1.0 on E. coli ADP-Glc PPase [1] (E. 10 µM Fru-1,6-P2); 1.1 on E. coli ADP-Glc PPase [1] (setting [5]). In addition, the entries for the “Glc-1P n H” value on E. coli ADP-Glc PPase [1] (G. 150 µM Fru-1,6-P2), at E. coli ADP-Glc PPase [1] (I. 2 mM Fru-1,6-P2) and on E. coli ADP-Glc PPase [1] (J. 50 mM Pyr +2 mM Fru-1,6-P2) were 1.2, 1.3 and 1.0, respectively.
